Measurements reported in publication PMC3094853 (Chembiochem : a European journal of chemical biology, 2010).
Where two headings read alike, the source gives them in different places.

Tests used:
[1] = target: HER2 TK (Homo sapiens, UniProt P04626); assay: ELISA of biotinylated peptide phosphorylation; assay type: biochemical
[2] = target: HER1 TK (Homo sapiens, UniProt P00533); assay: ELISA of biotinylated peptide phosphorylation; assay type: biochemical; details: 20 µM ATP; 1.5 µM peptide substrate; 5 mM MgCl2; 5 mM MnCl2; HEPES pH 7.5; 23 °C

Row | IC50 ([1]; 20 µM ATP, 1.5 µM peptide substrate, 5 mM MgCl2, 5 mM MnCl2, HEPES pH 7.5, 23 °C) [nM] | IC50 [2] [nM] | IC50 [1] [nM] | Compound
1 | 160 | 330 | – | 4-trifluoromethylcinnamoyl pyrone [2e]
2 | – | – | 590 | COc1cc(/C=C(\C#N)C(N)=O)cc(CSc2nc3ccccc3s2)c1O [AG-825]
